In US11000033B2, “Ketone or oxime compound, and herbicide” (NISSAN CHEMICAL CORPORATION, priority 2014, dated 2021):

Tests used:
Type in all cases: in vivo
[1] = test system: directly sowed rice plant; test: Test Example 3: effect on crop by foliage application, Wagner pot (symbol b); settings: application herbicide amount 320 g/ha
Method in brief: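 Greenhouse culture at 25–30 °C of seeded rice, Cyperus difformis, Leptochloa chinensis and Echinochloa crus-galli var. crus-galli, in alluvial soil held under 0.1–0.5 cm of water in a Wagner pot.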

[2] = test system: Abutilon theophrasti; test: Test Example 4: herbicidal effect by soil treatment (symbol M); settings: application herbicide amount 320 g/ha
Method in brief: (§1)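 Seeds were sown in sterilized diluvial soil, covered with about 1.5 cm of soil, and the soil surface was sprayed with a water-diluted emulsion of the compound at a predetermined rate. Plants grew in a greenhouse at 25° C. to 30° C.; effects were scored visually 3 weeks after application.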

[3] = test system: Stellaria media; test: Test Example 5: herbicidal effect by foliage application, plastic box (symbol P); settings: 320 g/ha, 3 weeks after application
Method in brief: (§2)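 After sowing into sterilized diluvial soil and growing two weeks under glass at 25° C. to 30° C., seedlings receive a uniform foliar spray of diluted emulsion. Damage is judged visually three weeks on.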

[4] = test system: Chenopodium album; test: Test Example 5: herbicidal effect by foliage application, plastic box (symbol O); settings: 320 g/ha, 3 weeks after application
Method in brief: as §2

[5] = test system: Setaria viridis; test: Test Example 4: herbicidal effect by soil treatment (symbol G); settings: application herbicide amount 320 g/ha
Method in brief: as §1

[6] = test system: Avena fatua; test: Test Example 4: herbicidal effect by soil treatment (symbol I); settings: application herbicide amount 320 g/ha
Method in brief: as §1

[7] = test system: corn; test: Test Example 5: effect on crop by foliage application, plastic box (symbol c); settings: 320 g/ha, 3 weeks after application
Method in brief: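 Crop seed is sown alongside grass and broadleaf weed species in spots in sterilized diluvial soil, then covered to a depth of about 1.5 cm. Plants grow in a greenhouse kept at 25° C. to 30° C.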

[8] = test system: Echinochloa oryzacola Vasing.; test: Test Example 2: herbicidal activity, application during weed generation in submerged conditions (symbol A); settings: Table 23; application herbicide amount 320 g/ha; grade 0-5 by criteria of Test Example 1
Method in brief: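 Weeds emerging under flooded conditions were treated with compound formulated as an emulsion and diluted with water to the intended herbicide amount, poured onto the surface of 4 cm standing water. Seeds had been co-sown in alluvial soil; plants grew at 25° C. to 30° C. and were assessed after 3 weeks.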

[9] = test system: Avena fatua; test: Test Example 5: herbicidal effect by foliage application, plastic box (symbol I); settings: 320 g/ha, 3 weeks after application
Method in brief: as §2

[10] = test system: Chenopodium album; test: Test Example 4: herbicidal effect by soil treatment (symbol O); settings: application herbicide amount 320 g/ha
Method in brief: as §1

[11] = test system: Amaranthus retroflexus; test: Test Example 4: herbicidal effect by soil treatment (symbol N); settings: application herbicide amount 320 g/ha
Method in brief: as §1

[12] = test system: Galium spurium; test: Test Example 4: herbicidal effect by soil treatment (symbol Q); settings: application herbicide amount 320 g/ha
Method in brief: as §1

[13] = test system: wheat; test: Test Example 4: effect on crop by soil treatment (symbol e); settings: application herbicide amount 320 g/ha
Method in brief: (§3)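 Greenhouse culture at 25° C. to 30° C. followed sowing of seed in spots on sterilized diluvial soil with a soil cover close to 1.5 cm thick.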

[14] = test system: Lolium multiflorum Lam.; test: Test Example 4: herbicidal effect by soil treatment (symbol K); settings: application herbicide amount 320 g/ha
Method in brief: as §1

[15] = test system: Alopecurus myosuroides; test: Test Example 4: herbicidal effect by soil treatment (symbol J); settings: application herbicide amount 320 g/ha
Method in brief: as §1

[16] = test system: rice; test: Test Example 4: effect on crop by soil treatment (symbol b); settings: application herbicide amount 320 g/ha
Method in brief: as §3

[17] = test system: Leptochloa chinensis; test: Test Example 3: herbicidal effect by foliage application, Wagner pot (symbol D); settings: application herbicide amount 320 g/ha
Method in brief: (§4)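 Alluvial soil was flooded to a depth of 0.1–0.5 cm, seeded with the weeds and rice, and kept in a greenhouse at 25–30 °C. After 14 days of growth, the foliage received a small-sprayer application of emulsion diluted to the intended rate; injury was rated at 3 weeks.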

[18] = test system: Cyperus difformis; test: Test Example 3: herbicidal effect by foliage application, Wagner pot (symbol E); settings: application herbicide amount 320 g/ha
Method in brief: as §4

SMILES	effect on crop b (directly sowed rice plant), grade 0-5 [1]	M: Abutilon theophrasti, herbicidal effect grade [2]	P: Stellaria media, herbicidal effect (criteria of Test Example 1) [3]	O: Chenopodium album, herbicidal effect (criteria of Test Example 1) [4]	G: Setaria viridis, herbicidal effect grade [5]	I: Avena fatua, herbicidal effect grade [6]	c: corn, effect on crop (criteria of Test Example 1) [7]	Herbicidal effect grade, A: Echinochloa oryzacola Vasing. [8]	I: Avena fatua, herbicidal effect (criteria of Test Example 1) [9]	O: Chenopodium album, herbicidal effect grade [10]	N: Amaranthus retroflexus, herbicidal effect grade [11]	Q: Galium spurium, herbicidal effect grade [12]	e: wheat, effect on crop grade [13]	K: Lolium multiflorum Lam., herbicidal effect grade [14]	J: Alopecurus myosuroides, herbicidal effect grade [15]	b: directly sowed rice plant, effect on crop grade [16]	herbicidal effect on D (Leptochloa chinensis), grade 0-5 [17]	herbicidal effect on E, grade 0-5 [18]	Herbicidal effect grade, M: Abutilon theophrasti [2]	Herbicidal effect grade, G: Setaria viridis [5]	further results
CON=C(C)CC1CC(OC(=O)N2CCOCC2)=C(c2c(C)cc(-c3ccc(F)cc3)cc2C)C1=O (mixture of isomers) [6-059]	5 (Herbicidal ratio of 90% or more (almost completely withered))	0 (Herbicidal ratio of 5% or lower (almost no effect))	4 (Herbicidal ratio of 70% or higher and lower than 90%)	5 (Herbicidal ratio of 90% or more (almost completely withered))	5 (Herbicidal ratio of 90% or more (almost completely withered))	3 (Herbicidal ratio of 40% or higher and lower than 70%)	5 (Herbicidal ratio of 90% or more (almost completely withered))	5 (Herbicidal ratio of 90% or more (almost completely withered))	5 (Herbicidal ratio of 90% or more (almost completely withered))	0 (Herbicidal ratio of 5% or lower (almost no effect))	0 (Herbicidal ratio of 5% or lower (almost no effect))	3 (Herbicidal ratio of 40% or higher and lower than 70%)	0 (Herbicidal ratio of 5% or lower (almost no effect))	1 (Herbicidal ratio of 5% or higher and lower than 20%)	5 (Herbicidal ratio of 90% or more (almost completely withered))	0 (Herbicidal ratio of 5% or lower (almost no effect))	5 (Herbicidal ratio of 90% or more (almost completely withered))	5 (Herbicidal ratio of 90% or more (almost completely withered))	–	–	–
CON=C(C)CC1CC(O)=C(c2c(C)cc(OC)cc2C)C1=O (stereo not drawn) [6-055]	5 (Herbicidal ratio of 90% or more (almost completely withered))	3 (Herbicidal ratio of 40% or higher and lower than 70%)	4 (Herbicidal ratio of 70% or higher and lower than 90%)	3 (Herbicidal ratio of 40% or higher and lower than 70%)	5 (Herbicidal ratio of 90% or more (almost completely withered))	0 (Herbicidal ratio of 5% or lower (almost no effect))	5 (Herbicidal ratio of 90% or more (almost completely withered))	5 (Herbicidal ratio of 90% or more (almost completely withered))	5 (Herbicidal ratio of 90% or more (almost completely withered))	0 (Herbicidal ratio of 5% or lower (almost no effect))	0 (Herbicidal ratio of 5% or lower (almost no effect))	0 (Herbicidal ratio of 5% or lower (almost no effect))	0 (Herbicidal ratio of 5% or lower (almost no effect))	5 (Herbicidal ratio of 90% or more (almost completely withered))	4 (Herbicidal ratio of 70% or higher and lower than 90%)	5 (Herbicidal ratio of 90% or more (almost completely withered))	5 (Herbicidal ratio of 90% or more (almost completely withered))	5 (Herbicidal ratio of 90% or more (almost completely withered))	–	–	–
CON=C(C)CC1CC(O)=C(c2c(C)cc(-c3ccc(Cl)cc3Cl)cc2C)C1=O (stereo not drawn) [6-088]	5 (Herbicidal ratio of 90% or more (almost completely withered))	–	4 (Herbicidal ratio of 70% or higher and lower than 90%)	5 (Herbicidal ratio of 90% or more (almost completely withered))	–	–	2 (Herbicidal ratio of 20% or higher and lower than 40%)	4 (Herbicidal ratio of 70% or higher and lower than 90%)	5 (Herbicidal ratio of 90% or more (almost completely withered))	–	–	–	–	–	–	–	5 (Herbicidal ratio of 90% or more (almost completely withered))	5 (Herbicidal ratio of 90% or more (almost completely withered))	3 (Herbicidal ratio of 40% or higher and lower than 70%)	5 (Herbicidal ratio of 90% or more (almost completely withered))	Herbicidal effect grade, I: Avena fatua [6]: 5 (Herbicidal ratio of 90% or more (almost completely withered)); Herbicidal effect grade, O: Chenopodium album [10]: 5 (Herbicidal ratio of 90% or more (almost completely withered)); Herbicidal effect grade, N: Amaranthus retroflexus [11]: 0 (Herbicidal ratio of 5% or lower (almost no effect)); Herbicidal effect grade, Q: Galium spurium [12]: 4 (Herbicidal ratio of 70% or higher and lower than 90%); Effect on crop grade, e: wheat [13]: 0 (Herbicidal ratio of 5% or lower (almost no effect)); Herbicidal effect grade, K: Lolium multiflorum Lam. [14]: 5 (Herbicidal ratio of 90% or more (almost completely withered)); Herbicidal effect grade, J: Alopecurus myosuroides [15]: 5 (Herbicidal ratio of 90% or more (almost completely withered)); Effect on crop grade, b: directly sowed rice plant [16]: 0 (Herbicidal ratio of 5% or lower (almost no effect))
CON=C(C)CC1CC(O)=C(c2c(OC)cc(C)cc2OC)C1=O (stereo not drawn) [6-103]	5 (Herbicidal ratio of 90% or more (almost completely withered))	–	1 (Herbicidal ratio of 5% or higher and lower than 20%)	0 (Herbicidal ratio of 5% or lower (almost no effect))	–	–	5 (Herbicidal ratio of 90% or more (almost completely withered))	5 (Herbicidal ratio of 90% or more (almost completely withered))	5 (Herbicidal ratio of 90% or more (almost completely withered))	–	–	–	–	–	–	–	5 (Herbicidal ratio of 90% or more (almost completely withered))	5 (Herbicidal ratio of 90% or more (almost completely withered))	0 (Herbicidal ratio of 5% or lower (almost no effect))	5 (Herbicidal ratio of 90% or more (almost completely withered))	Herbicidal effect grade, I: Avena fatua [6]: 5 (Herbicidal ratio of 90% or more (almost completely withered)); Herbicidal effect grade, O: Chenopodium album [10]: 0 (Herbicidal ratio of 5% or lower (almost no effect)); Herbicidal effect grade, N: Amaranthus retroflexus [11]: 0 (Herbicidal ratio of 5% or lower (almost no effect)); Herbicidal effect grade, Q: Galium spurium [12]: 0 (Herbicidal ratio of 5% or lower (almost no effect)); Effect on crop grade, e: wheat [13]: 5 (Herbicidal ratio of 90% or more (almost completely withered)); Herbicidal effect grade, K: Lolium multiflorum Lam. [14]: 5 (Herbicidal ratio of 90% or more (almost completely withered)); Herbicidal effect grade, J: Alopecurus myosuroides [15]: 5 (Herbicidal ratio of 90% or more (almost completely withered)); Effect on crop grade, b: directly sowed rice plant [16]: 5 (Herbicidal ratio of 90% or more (almost completely withered))
